The source of these data is patent US11554124B2, “Hematopoiesis-enhancing agent” (priority 2018, dated 2023).

What all share (format): in vivo, mouse
In test [1] the test system is bone marrow erythroblasts. Kind of test: Flow cytometry of bone marrow cells / erythroblast subsets (Ter119/CD71 double staining) of treated mice. Particulars: CLEU 50 mg/body i.p. The procedure: Wild-type mice with a genetic background of C57BL/6J were purchased from Charles River Laboratories, Inc. Mice at 8 to 14 weeks of age were used for analysis. For CLEU treatment (50 mg/body), a solution of cycloleucine (CLEU) was prepared by diluting cycloleucine (CLEU) (Sigma) in PBS (50 mg/ml), and 1 ml of the CLEU solution was administered intraperitoneally. For AKBA treatment (2 mg/body), 2 mg AKBA (Enzo Life Sciences)/20% DMSO/1 mL PBS solution was administered intraperitoneally. Vehicle without AKBA was used as a control. For measuring complete blood count of peripheral blood, peripheral blood was collected from facial veins and counted by use of an automated animal blood cell counter (microsemi LC-662). All of the experiments conducted in this study were approved by the Animal Experiment Committee of the Environmental Safety Committee of Tohoku University.
BM cells and spleen cells were harvested in a conventional manner. Cells were stained with combinations of antibodies specific to erythroblasts and mature cells, to thereby identify them. The cells were visualized with antibody and streptavidin-peridinin chlorophyll protein-cyanin 5.5. The antibodies used in this study were as follows: anti-CD3e (145-2C11), anti-CD4 (GK1.5 or RM4.5), anti-CD8a (53-6.7), anti-Gr-1 (RB6-8C5), anti-B220 (RA3-6B2), anti-Ter-119 (TER-119), anti-CD71 (R17217 or C2). Cells were stained with […] (Sigma), and dead cells were excluded from analysis. Flow cytometric analysis and cell sorting were performed according to the manufacturer's protocol using FACS AriaII (BD), and then the obtained data were analyzed using FlowJo software (TreeStar).
Additionally, MAT inhibitor PF9366 (PF) was administered to mice and the effect thereof was investigated. Vehicle (DMSO) (control (Ctrl)) or 10 mM PF9366 (prepared at a concentration of 40 μl/40 ml water) was provided in a drinking bottle (0 h). In addition, 80 μl of vehicle (DMSO) or 80 μl of 10 mM PF9366 dissolved in 1 ml PBS was also administered intraperitoneally at 0 h and 24 h. Analysis was carried out at Day 2 (48 h).
MAT inhibitor 3-acetyl-11-keto-β-boswellic acid (AKBA; 2 mg/body) was intraperitoneally administered to mice at 0 and 24 hours, and analyzed after 48 hours.

The test system of test [2] is BM erythroblast subset II. Kind of test: RNA sequencing / RT-PCR of BM erythroblast subset II of treated mice. The method, then:
Total RNA was isolated by using the RNeasy kit (Qiagen) from the sorted sample of bone marrow subset II erythroblasts (PBS; n=4, CLEU; n=4). The quality of the isolated RNA ([…]) was checked using a 2100 bioanalyzer (Agilent), and 250 ng of the RNA was used as input for library preparation in accordance with the manufacturer's instructions using the TruSeq Stranded mRNA Library Prep Kit (Illumina). High-throughput sequencing (51 bp, single-ended) was performed using Hiseq2500 Rapid mode v2 (Illumina). Sequenced reads were mapped to the reference mouse genome (mm9) by using bowtie2 version 2.2.5 and tophat version 2.1.0, and then the abundances of transcripts were estimated by using cufflinks version 2.2.1. Gene expression levels were normalized to the average of fragments per kilobase of transcript per million mapped reads (FPKM) value. Individually expressed genes with FPKM>10 and CV<0.5 (under at least one of the two conditions) were used for further analysis (log2 FC<−0.5 or log2 FC>0.5, P<0.05 within each condition).
For the purpose of elucidating the mechanism of the maturation of erythroblasts induced by CLEU treatment, RNA sequencing analysis of BM erythroblast subset II was performed. […] According to previous reports which had shown the contributory role of CD163 and Apoe in erythropoiesis, up-regulation of CD163 and/or Apoe is necessary for proper use of heme and/or lipid membrane synthesis during the maturation of erythroblasts. […] Considering the fact that abnormalities in globin genes cause the maturation defects in erythroblasts in disorders such as thalassemia, up-regulation of these genes, on the other hand, could be the driving force for the final maturation stage of erythroblasts.

The subject of test [3] is trimethylation of lysine 9 of histone H3 (H3K9me3). Kind of test: Western blot of H3K9me3 in bone marrow erythroblast subset II. Particulars: CLEU, BM erythroblast subset II, Day 2, vs PBS. The text has this:
FIG. 4 is the experimental result showing that epigenetic demethylation induces the final maturation of erythroblasts. Panel A: WGBS (whole genome bisulfite sequencing) results of bone marrow erythroblast subset II harvested from CLEU or PBS treated mouse (Day 2) (CLEU; n=2, PBS; n=2). Panel B: Difference in expression levels versus difference in CpG methylation of the promoter for all expressed genes (at least one of FPKM>10 and CV<0.5). The correlation (Cor) was −0.08. […] The correlation (Cor) was −0.11. Panel D: Images (photographs) showing western blot (WB) results of trimethylation of lysine 9 of histone H3 (H3K9me3) on bone marrow erythroblast subset II harvested from CLEU or PBS treated mouse (Day 2). Panels E-G: In vitro red blood cell differentiation of Human CD34^+ cord blood cells. Panel E: Representative results of flow cytometric analysis. Panel F: Cumulative results for the indicated cell population. Panel G: Cumulative results for CD34 EMI (CD34 red blood cell maturation index: CD71^+ GlyA^+/CD71^+ GlyA^−). Each point shown in the box plots represents each technical replicate. Asterisk indicates P<0.001.
The overall transcriptional changes observed as above could be attributed to epigenetic modification changes due to the reduced abundance of intracellular SAM (Panel A of FIG. 2). […]

Setting [4] is: CLEU, subset II, Day 2, RT-PCR normalized to Actb.

As to `NC1(C(=O)O)CCCC1` [CLEU, cycloleucine], in test [1] (Day 2, Ter119/CD71 double staining), the “subset from which the increase of erythroblasts was initiated” value is reported as “initiated from subset II”. The maturation of erythroblasts result in test [1] (Day 2, Ter119/CD71 double staining, vs PBS) was “significantly up-regulated”. Moreover, the “erythroid cells in BM” value in test [1] (Day 2, flow cytometry, vs PBS) is recorded as “considerable increase”. In addition, the BM cell counts result in test [1] (femur and tibiae, Day 2, vs PBS) is listed as “significantly increased”. The “number of genes identified as significantly up-regulated” value in test [2] (CLEU, BM erythroblast subset II, Day 2, RNA sequencing, vs PBS) is given as 72 genes. Also, the “expression of Gata1, Tal1, and Klf1” value in test [2] (CLEU, BM erythroblast subset II, Day 2, vs PBS) is given as “significantly down-regulated”. Further, in test [2] (setting [4]), the “expression of Myb, Cited2 and H1f0” value is reported as “significantly up-regulated”; the “expression of hemoglobin-related genes, CD163 and Apoe (validation analysis)” value is given as “significantly up-regulated”. Moreover, the “expression levels of several histone methyltransferase” value in test [2] (CLEU, subset II, RNA sequencing) is “significantly down-regulated”. In addition, the “expression of globin genes” value in test [2] (CLEU-treated erythroblasts, subset II, Day 2) was “most heavily expressed”. Moreover, the “trimethylation of H3K9” value in test [3] is recorded as “decreased”.
